± gives the standard deviation of the averaged measurements.
Columns and labels:
[1] = compound: Cn1cc(C2=Nc3cc(NC(=O)C(N)C4CCCCC4)cc4c3C2=CNNC4=O)cn1; assay: surviving fraction relative to DMSO-only wells; higher = less growth inhibition; details: exposure time: 5 days
In short: (§1)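 After seeding at 250–500 cells per well in 384-well plates and a 24-hour wait, log-phase tumour cell lines were exposed without interruption for five days to inhibitors at 0.5, 1, 5, 10, 50, 100, 500 and 1000 nM. CellTiter-Glo luminescence was recorded after 10 minutes at room temperature. Viability is reported as surviving fraction, the luminescence normalised to the median of DMSO-only wells.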

MDV3100 [2] = compound: T1, CNC(=O)c1ccc(N2C(=S)N(c3ccc(C#N)c(C(F)(F)F)c3)C(=O)C2(C)C)cc1F [MDV3100]; assay: as above; details: exposure time: 5 days
In short: as §1

CANERTINIB = compound: C=CC(=O)Nc1cc2c(Nc3ccc(F)c(Cl)c3)ncnc2cc1OCCCN1CCOCC1 [CANERTINIB]; assay: area under dose-response curve of surviving fraction (unscaled, Aref=0) (surviving fraction x log10(nM)); higher = more resistant; details: exposure time: 5 days; dose range 0.5-1000 nM
In short: (§2)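 Each tumour cell line was screened three times in 384-well plates, receiving eight inhibitor concentrations from 0.5 to 1000 nM for five days. CellTiter-Glo luminescence gave viability, normalised to DMSO-only wells. Using the drc R package, surviving fractions were fitted with 3-parameter logistic dose-response curves, and the unscaled activity area over log10 dose (Aref = 0) was taken as the area under the curve.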

BI-2536 = compound: CC[C@@H]1C(=O)N(C)c2cnc(Nc3ccc(C(=O)NC4CCN(C)CC4)cc3OC)nc2N1C1CCCC1 [BI-2536]; assay: as above; details: exposure time: 5 days; dose range 0.5-1000 nM
In short: as §2

MDV3100 [3] = compound: T1, MDV3100; assay: as above; details: exposure time: 5 days; dose range 0.5-1000 nM
In short: as §2

SNX-5422 = compound: CC1(C)CC(=O)c2c(C(F)(F)F)nn(-c3ccc(C(N)=O)c(N[C@H]4CC[C@H](OC(=O)CN)CC4)c3)c2C1 [SNX-5422]; assay: as above; details: exposure time: 5 days; dose range 0.5-1000 nM
In short: as §2

Test System	surviving fraction ([1]; 0.5 nM)	surviving fraction ([1]; 1 nM)	surviving fraction ([1]; 5 nM)	surviving fraction ([1]; 10 nM)	surviving fraction ([1]; 50 nM)	surviving fraction ([1]; 100 nM)	surviving fraction ([1]; 500 nM)	surviving fraction ([1]; 1000 nM)	surviving fraction (MDV3100 [2]; 0.5 nM)	surviving fraction (MDV3100 [2]; 1 nM)	surviving fraction (MDV3100 [2]; 5 nM)	surviving fraction (MDV3100 [2]; 10 nM)	surviving fraction (MDV3100 [2]; 50 nM)	surviving fraction (MDV3100 [2]; 100 nM)	surviving fraction (MDV3100 [2]; 500 nM)	surviving fraction (MDV3100 [2]; 1000 nM)	area under dose-response curve (CANERTINIB)	area under dose-response curve (BI-2536)	area under dose-response curve (MDV3100 [3])	area under dose-response curve (SNX-5422)
G292 BONE	1.03 ± 0.019	0.968 ± 0.051	1.02 ± 0.077	1.04 ± 0.029	0.631 ± 0.018	0.315 ± 0.0083	0.11 ± 0.0059	0.0638 ± 0.0015	0.9907 ± 0.009	1.03 ± 0.02	1.03 ± 0.059	1.02 ± 0.013	0.956 ± 0.032	0.985 ± 0.036	0.961 ± 0.013	0.865 ± 0.024	3.18	0.883	3.25	2.01
H23 LUNG	1.05 ± 0.052	1.07 ± 0.092	1.09 ± 0.046	1.074 ± 0.0038	1.11 ± 0.1	1.1 ± 0.096	1.02 ± 0.084	0.944 ± 0.031	0.978 ± 0.013	0.95 ± 0.0056	0.944 ± 0.03	0.942 ± 0.011	0.954 ± 0.026	0.9877 ± 0.0021	0.93 ± 0.034	0.891 ± 0.02	1.77	1.66	3.13	2.03
HCC38 BREAST	1 ± 0.33	1.06 ± 0.23	0.978 ± 0.3	0.92 ± 0.11	0.114 ± 0.036	0.031 ± 0.0079	0.027 ± 0.0027	0.021 ± 0.0017	1.02 ± 0.14	1.27 ± 0.2	1.28 ± 0.038	1.1 ± 0.066	1.25 ± 0.027	1.35 ± 0.11	1.28 ± 0.038	1.13 ± 0.19	3.55	1.35	4.04	1.97
HCC70 BREAST	1.04 ± 0.035	1.19 ± 0.054	1.13 ± 0.046	1.09 ± 0.063	0.758 ± 0.028	0.313 ± 0.076	0.0723 ± 0.014	0.042 ± 0.0052	0.994 ± 0.021	0.955 ± 0.052	0.992 ± 0.085	0.963 ± 0.16	1.06 ± 0.082	0.979 ± 0.051	0.975 ± 0.076	0.88 ± 0.058	3	2	3.28	2.19
HCC202 BREAST	0.89 ± 0.18	0.775 ± 0.22	0.967 ± 0.15	0.838 ± 0.22	0.66 ± 0.27	0.505 ± 0.18	0.274 ± 0.049	0.341 ± 0.054	0.968 ± 0.098	0.983 ± 0.18	0.865 ± 0.21	0.97 ± 0.34	1.1 ± 0.043	0.86 ± 0.12	0.999 ± 0.25	0.623 ± 0.085		1.68		2.33
HCC1954 BREAST	0.772 ± 0.092	0.584 ± 0.042	0.927 ± 0.019	0.889 ± 0.035	0.571 ± 0.011	0.6015 ± 0.0014	0.1713 ± 0.0011	0.0897 ± 0.0074	1.12 ± 0.018	0.975 ± 0.18	1.17 ± 0.19	1.25 ± 0.25	0.919 ± 0.077	0.909 ± 0.017	0.9483 ± 0.0088	0.771 ± 0.012	0.92	1.92		1.62
HMT3552 BREAST	0.92	1.07	1.02	0.936	0.999	1.03	0.176	0.097	1.02 ± 0.073	1.02 ± 0.079	1.02 ± 0.013	1.03 ± 0.065	1.14 ± 0.031	1.23 ± 0.023	1.18 ± 0.053	1.24 ± 0.086	2.58		3.66	
HS57T BREAST	1.04 ± 0.02	1.09 ± 0.027	1.11 ± 0.019	1.08 ± 0.047	0.967 ± 0.07	0.72 ± 0.027	0.097 ± 0.0087	0.0793 ± 0.0038	0.866 ± 0.091	0.918 ± 0.032	0.963 ± 0.033	0.947 ± 0.12	0.847 ± 0.069	0.955 ± 0.043	0.923 ± 0.068	0.912 ± 0.041				
HU09 BONE	0.977 ± 0.039	1.02 ± 0.062	1.02 ± 0.058	0.975 ± 0.015	0.6343 ± 0.0057	0.372 ± 0.033	0.073 ± 0.0061	0.0617 ± 0.011	0.984 ± 0.077	1.03 ± 0.11	1.05 ± 0.071	1.12 ± 0.18	1 ± 0.055	1.04 ± 0.057	0.952 ± 0.053	0.954 ± 0.018	3.15	0.614		1.39
LNCAP PROSTATE	0.922 ± 0.12	1.11 ± 0.11	0.926 ± 0.14	0.915 ± 0.15	1.23 ± 0.052	1.06 ± 0.12	0.544 ± 0.024	0.287 ± 0.031	1.05 ± 0.15	0.962 ± 0.035	0.912 ± 0.089	0.957 ± 0.13	0.979 ± 0.012	0.925 ± 0.053	0.663 ± 0.033	0.497 ± 0.079		0.892	3.01	1.64
MDAMB134 BREAST	0.9005 ± 0.0064	0.987 ± 0.062	0.908 ± 0.092	0.855 ± 0.17	0.642 ± 0.067	0.525 ± 0.14	0.442 ± 0.033	0.505 ± 0.018	0.813 ± 0.09	0.82 ± 0.1	0.894 ± 0.2	0.918 ± 0.0099	1.06 ± 0.15	0.794 ± 0.033	1.17 ± 0.018	0.992 ± 0.25	2.36	2.89		2.8
SG27 HEADNECK	1.11 ± 0.17	0.979 ± 0.096	0.898 ± 0.059	1.01 ± 0.022	0.904 ± 0.12	0.917 ± 0.18	0.895 ± 0.042	0.839 ± 0.035	1.064 ± 0.0067	1.01 ± 0.12	1.07 ± 0.13	0.935 ± 0.091	1.09 ± 0.04	1.19 ± 0.081	1.21 ± 0.2	1.17 ± 0.19	3.27	2.97		2.78
SG28 HEADNECK	0.971 ± 0.052	1.04 ± 0.14	0.991 ± 0.044	1.01 ± 0.047	0.83 ± 0.029	0.661 ± 0.022	0.427 ± 0.012	0.317 ± 0.026	1.19 ± 0.035	1.06 ± 0.0078	1.02 ± 0.086	0.762 ± 0.034	0.949 ± 0.062	1.01 ± 0.06	1.11 ± 0.067	0.946 ± 0.13		2.69		2.19
SKBR3 BREAST	0.927 ± 0.058	0.948 ± 0.086	0.989 ± 0.088	1 ± 0.073	0.736 ± 0.056	0.459 ± 0.064	0.206 ± 0.011	0.224 ± 0.024	1.02 ± 0.093	1.09 ± 0.12	1.11 ± 0.069	1.1 ± 0.17	1 ± 0.11	1.052 ± 0.0065	0.971 ± 0.046	1.09 ± 0.18	1.75	0.991		2.08
VCAP PROSTATE	1.04 ± 0.058	1.13 ± 0.12	1.14 ± 0.033	1.16 ± 0.081	0.969 ± 0.051	0.97 ± 0.032	0.254 ± 0.059	0.113 ± 0.0095	1.04 ± 0.12	1.06 ± 0.23	1.09 ± 0.12	1.11 ± 0.14	1.13 ± 0.058	1.09 ± 0.15	0.837 ± 0.07	0.722 ± 0.1	3.15	0.516		2.12
VP229 BREAST	1.04 ± 0.11	1.04 ± 0.035	1.02 ± 0.059	1.11 ± 0.17	1.06 ± 0.15	1.01 ± 0.064	1.13 ± 0.13	1.06 ± 0.15	1.05 ± 0.052	0.995 ± 0.089	0.878 ± 0.095	0.905 ± 0.13	1 ± 0.12	0.994 ± 0.055	0.947 ± 0.07	0.806 ± 0.077	1.58	1.18		2.34
